Laboratory results: PubChem BioAssay AID1845203 (Molecular Pharmacology Branch, DTP, NCI, 2023)
pIC50: −log10 of the molar value.

Tested on: G-401 tumor spheroids, viability % test/control
Test: Anticancer human tumor G-401 cell line growth inhibition;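 also: spheroids exposed to compound for 7 days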;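 as to viability, T/C: 100% = DMSO vehicle-treated spheroids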
Conditions: spheroids with HUVEC and MSC; for pIC50: curve of first compound; for viability, T/C: stronger effect = lower value; active = viability on the fitted dose curve at most 10% of control; inactive = the rest
Method in brief: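 Single agents and combinations were tested on spheroids built from tumor cells plus HUVEC and hMSC, at half-log dilutions starting at or near clinical Cmax, else 10 microM; final DMSO 0.25% (v/v).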

[1] = second compound 1 µM, first compound 0.0949 µM
[2] = second compound 1 µM, first compound 0.3 µM
[3] = second compound 1 µM, first compound 0.949 µM
[4] = second compound 1 µM, first compound 3 µM
[5] = second compound 3.16 µM, first compound 0.0949 µM
[6] = second compound 3.16 µM, first compound 0.3 µM
[7] = second compound 3.16 µM, first compound 0.949 µM
[8] = second compound 3.16 µM, first compound 3 µM
[9] = second compound 10 µM, first compound 0.0949 µM
[10] = second compound 10 µM, first compound 0.3 µM
[11] = second compound 10 µM, first compound 0.949 µM
[12] = second compound 10 µM, first compound 3 µM
[13] = second compound 31.6 µM, first compound 0.0949 µM
[14] = second compound 31.6 µM, first compound 0.3 µM
[15] = second compound 31.6 µM, first compound 0.949 µM
[16] = second compound 31.6 µM, first compound 3 µM
[17] = second compound 100 µM, first compound 0.0949 µM
[18] = second compound 100 µM, first compound 0.3 µM
[19] = second compound 100 µM, first compound 0.949 µM
[20] = second compound 100 µM, first compound 3 µM
[21] = second compound 30 pM, first compound 0.0316 µM
[22] = second compound 30 pM, first compound 0.1 µM
[23] = second compound 30 pM, first compound 0.316 µM
[24] = second compound 30 pM, first compound 1 µM
[25] = second compound 30 pM, first compound 3.16 µM
[26] = second compound 30 pM, first compound 10 µM
[27] = second compound 94.9 pM, first compound 0.0316 µM
[28] = second compound 94.9 pM, first compound 0.1 µM
[29] = second compound 94.9 pM, first compound 0.316 µM
[30] = second compound 94.9 pM, first compound 1 µM
[31] = second compound 94.9 pM, first compound 3.16 µM
[32] = second compound 94.9 pM, first compound 10 µM
[33] = second compound 0.0003 µM, first compound 0.0316 µM
[34] = second compound 0.0003 µM, first compound 0.1 µM
[35] = second compound 0.0003 µM, first compound 0.316 µM
[36] = second compound 0.0003 µM, first compound 1 µM
[37] = second compound 0.0003 µM, first compound 3.16 µM
[38] = second compound 0.0003 µM, first compound 10 µM
[39] = second compound 0.000949 µM, first compound 0.0316 µM
[40] = second compound 0.000949 µM, first compound 0.1 µM
[41] = second compound 0.000949 µM, first compound 0.316 µM
[42] = second compound 0.000949 µM, first compound 1 µM
[43] = second compound 0.000949 µM, first compound 3.16 µM
[44] = second compound 0.000949 µM, first compound 10 µM
[45] = second compound 0.003 µM, first compound 0.0316 µM
[46] = second compound 0.003 µM, first compound 0.1 µM
[47] = second compound 0.003 µM, first compound 0.316 µM
[48] = second compound 0.003 µM, first compound 1 µM
[49] = second compound 0.003 µM, first compound 3.16 µM
[50] = second compound 0.003 µM, first compound 10 µM

O=C(c1cc(Cc2n[nH]c(=O)c3ccccc23)ccc1F)N1CCN(C(=O)C2CC2)CC1 + Cn1nnc2c(C(N)=O)ncn2c1=O
4.91: pIC50 (second compound 1 µM)
5.29: pIC50 (second compound 10 µM)
6.40: pIC50 (second compound 100 µM)
inactive: viability, T/C [1] 102% | viability, T/C [2] 102% | viability, T/C [3] 93.3% | viability, T/C [4] 83% | viability, T/C (second compound 1 µM, first compound 9.49 µM) 54% | viability, T/C (second compound 1 µM, first compound 30 µM) 32.9% | viability, T/C [5] 94.4% | viability, T/C [6] 96.5% | viability, T/C [7] 96.7% | viability, T/C [8] 80.4% | viability, T/C (second compound 3.16 µM, first compound 9.49 µM) 46.6% | viability, T/C (second compound 3.16 µM, first compound 30 µM) 28.3% | viability, T/C [9] 91.2% | viability, T/C [10] 95% | viability, T/C [11] 94.5% | viability, T/C [12] 66.7% | viability, T/C (second compound 10 µM, first compound 9.49 µM) 31.3% | viability, T/C (second compound 10 µM, first compound 30 µM) 20.4% | viability, T/C [13] 91.6% | viability, T/C [14] 83.2% | viability, T/C [15] 79% | viability, T/C [16] 37.4% | viability, T/C (second compound 31.6 µM, first compound 9.49 µM) 19.5% | viability, T/C (second compound 31.6 µM, first compound 30 µM) 15.4% | viability, T/C [17] 65.8% | viability, T/C [18] 58.1% | viability, T/C [19] 26.8% | viability, T/C [20] 17.9% | viability, T/C (second compound 100 µM, first compound 9.49 µM) 14.3% | viability, T/C (second compound 100 µM, first compound 30 µM) 13.3%
5.67: pIC50 (second compound 31.6 µM)
5.08: pIC50 (second compound 3.16 µM)

CC(C)n1c(=O)n(C)c2cnc3cc(F)c(-c4ccc(OCCCN5CCCCC5)nc4)cc3c21 + COc1cc2c(cc1O)CCNC21CSC2c3c(OC(C)=O)c(C)c4c(c3C(COC1=O)N1C(O)C3Cc5cc(C)c(OC)c(O)c5C(C21)N3C)OCO4
active: viability, T/C [39] 7.44% | viability, T/C [40] 7.47% | viability, T/C [41] 7.71% | viability, T/C [42] 11.5% | viability, T/C [43] 12.2% | viability, T/C [44] 10.6% | viability, T/C [45] 0.13% | viability, T/C [46] 0.16% | viability, T/C [47] 0.15% | viability, T/C [48] 0.36% | viability, T/C [49] 0.4% | viability, T/C [50] 0.44%
inactive: viability, T/C [21] 43.6% | viability, T/C [22] 35.7% | viability, T/C [23] 35% | viability, T/C [24] 46.2% | viability, T/C [25] 36.9% | viability, T/C [26] 19% | viability, T/C [27] 19.1% | viability, T/C [28] 17.3% | viability, T/C [29] 18.1% | viability, T/C [30] 21.6% | viability, T/C [31] 23.9% | viability, T/C [32] 23% | viability, T/C [33] 15.6% | viability, T/C [34] 12.8% | viability, T/C [35] 16.4% | viability, T/C [36] 19.7% | viability, T/C [37] 18.4% | viability, T/C [38] 17.9%
> 7.50: pIC50 (second compound 30 pM) | pIC50 (second compound 94.9 pM) | pIC50 (second compound 0.0003 µM) | pIC50 (second compound 0.000949 µM) | pIC50 (second compound 0.003 µM)

Cn1ncnc1[C@H]1c2n[nH]c(=O)c3cc(F)cc(c23)N[C@@H]1c1ccc(F)cc1 + Cn1nnc2c(C(N)=O)ncn2c1=O
7.65: pIC50 (second compound 10 µM)
7.24: pIC50 (second compound 3.16 µM)
6.81: pIC50 (second compound 1 µM)
inactive: viability, T/C (second compound 1 µM, first compound 0.00949 µM) 81.7% | viability, T/C (second compound 1 µM, first compound 0.03 µM) 73.9% | viability, T/C [1] 57.2% | viability, T/C [2] 39.6% | viability, T/C [3] 23.3% | viability, T/C [4] 12.6% | viability, T/C (second compound 3.16 µM, first compound 0.00949 µM) 87.8% | viability, T/C (second compound 3.16 µM, first compound 0.03 µM) 54.6% | viability, T/C [5] 45.3% | viability, T/C [6] 30.5% | viability, T/C [7] 23.4% | viability, T/C [8] 13.2% | viability, T/C (second compound 10 µM, first compound 0.00949 µM) 63% | viability, T/C (second compound 10 µM, first compound 0.03 µM) 44.9% | viability, T/C [9] 32.4% | viability, T/C [10] 23.3% | viability, T/C [11] 15.7% | viability, T/C [12] 10.4% | viability, T/C (second compound 31.6 µM, first compound 0.00949 µM) 35.6% | viability, T/C (second compound 31.6 µM, first compound 0.03 µM) 21.3% | viability, T/C [13] 16.4% | viability, T/C [14] 13.9% | viability, T/C [15] 10.4% | viability, T/C [16] 9.51% | viability, T/C (second compound 100 µM, first compound 0.00949 µM) 14.1% | viability, T/C (second compound 100 µM, first compound 0.03 µM) 11.6% | viability, T/C [17] 10.8%
> 8.02: pIC50 (second compound 31.6 µM) | pIC50 (second compound 100 µM)
active: viability, T/C [18] 10.3% | viability, T/C [19] 8.87% | viability, T/C [20] 6.62%

COc1cc(C)[nH]c(=O)c1CN1CCc2c(Cl)cc(C(OC)C3COC3)c(Cl)c2C1=O (stereo not given) + COc1cc2c(cc1O)CCNC21CSC2c3c(OC(C)=O)c(C)c4c(c3C(COC1=O)N1C(O)C3Cc5cc(C)c(OC)c(O)c5C(C21)N3C)OCO4
active: viability, T/C [39] 4.72% | viability, T/C [40] 5.11% | viability, T/C [41] 3.78% | viability, T/C [42] 4% | viability, T/C [43] 5.07% | viability, T/C [44] 3.13% | viability, T/C [45] 0.12% | viability, T/C [46] 0.12% | viability, T/C [47] 0.11% | viability, T/C [48] 0.11% | viability, T/C [49] 0.11% | viability, T/C [50] 0.18%
7.06: pIC50 (second compound 94.9 pM)
6.97: pIC50 (second compound 30 pM)
> 7.50: pIC50 (second compound 0.0003 µM) | pIC50 (second compound 0.000949 µM) | pIC50 (second compound 0.003 µM)
inactive: viability, T/C [21] 83.1% | viability, T/C [22] 50.9% | viability, T/C [23] 33.9% | viability, T/C [24] 28.1% | viability, T/C [25] 26.9% | viability, T/C [26] 26.1% | viability, T/C [27] 74.1% | viability, T/C [28] 44.6% | viability, T/C [29] 36.1% | viability, T/C [30] 27.3% | viability, T/C [31] 22.7% | viability, T/C [32] 22.8% | viability, T/C [33] 33.1% | viability, T/C [34] 30.2% | viability, T/C [35] 23% | viability, T/C [36] 20.4% | viability, T/C [37] 18.4% | viability, T/C [38] 18.1%
